Here are results for 28 compounds from patent US20210387966A1, “2-AMINO-N-HETEROARYL-NICOTINAMIDES AS NAV1.8 INHIBITORS” (Merck Sharp & Dohme Corp., priority 2018, published 2021).

T1 sequence (Q9Y5Y9 whole entry): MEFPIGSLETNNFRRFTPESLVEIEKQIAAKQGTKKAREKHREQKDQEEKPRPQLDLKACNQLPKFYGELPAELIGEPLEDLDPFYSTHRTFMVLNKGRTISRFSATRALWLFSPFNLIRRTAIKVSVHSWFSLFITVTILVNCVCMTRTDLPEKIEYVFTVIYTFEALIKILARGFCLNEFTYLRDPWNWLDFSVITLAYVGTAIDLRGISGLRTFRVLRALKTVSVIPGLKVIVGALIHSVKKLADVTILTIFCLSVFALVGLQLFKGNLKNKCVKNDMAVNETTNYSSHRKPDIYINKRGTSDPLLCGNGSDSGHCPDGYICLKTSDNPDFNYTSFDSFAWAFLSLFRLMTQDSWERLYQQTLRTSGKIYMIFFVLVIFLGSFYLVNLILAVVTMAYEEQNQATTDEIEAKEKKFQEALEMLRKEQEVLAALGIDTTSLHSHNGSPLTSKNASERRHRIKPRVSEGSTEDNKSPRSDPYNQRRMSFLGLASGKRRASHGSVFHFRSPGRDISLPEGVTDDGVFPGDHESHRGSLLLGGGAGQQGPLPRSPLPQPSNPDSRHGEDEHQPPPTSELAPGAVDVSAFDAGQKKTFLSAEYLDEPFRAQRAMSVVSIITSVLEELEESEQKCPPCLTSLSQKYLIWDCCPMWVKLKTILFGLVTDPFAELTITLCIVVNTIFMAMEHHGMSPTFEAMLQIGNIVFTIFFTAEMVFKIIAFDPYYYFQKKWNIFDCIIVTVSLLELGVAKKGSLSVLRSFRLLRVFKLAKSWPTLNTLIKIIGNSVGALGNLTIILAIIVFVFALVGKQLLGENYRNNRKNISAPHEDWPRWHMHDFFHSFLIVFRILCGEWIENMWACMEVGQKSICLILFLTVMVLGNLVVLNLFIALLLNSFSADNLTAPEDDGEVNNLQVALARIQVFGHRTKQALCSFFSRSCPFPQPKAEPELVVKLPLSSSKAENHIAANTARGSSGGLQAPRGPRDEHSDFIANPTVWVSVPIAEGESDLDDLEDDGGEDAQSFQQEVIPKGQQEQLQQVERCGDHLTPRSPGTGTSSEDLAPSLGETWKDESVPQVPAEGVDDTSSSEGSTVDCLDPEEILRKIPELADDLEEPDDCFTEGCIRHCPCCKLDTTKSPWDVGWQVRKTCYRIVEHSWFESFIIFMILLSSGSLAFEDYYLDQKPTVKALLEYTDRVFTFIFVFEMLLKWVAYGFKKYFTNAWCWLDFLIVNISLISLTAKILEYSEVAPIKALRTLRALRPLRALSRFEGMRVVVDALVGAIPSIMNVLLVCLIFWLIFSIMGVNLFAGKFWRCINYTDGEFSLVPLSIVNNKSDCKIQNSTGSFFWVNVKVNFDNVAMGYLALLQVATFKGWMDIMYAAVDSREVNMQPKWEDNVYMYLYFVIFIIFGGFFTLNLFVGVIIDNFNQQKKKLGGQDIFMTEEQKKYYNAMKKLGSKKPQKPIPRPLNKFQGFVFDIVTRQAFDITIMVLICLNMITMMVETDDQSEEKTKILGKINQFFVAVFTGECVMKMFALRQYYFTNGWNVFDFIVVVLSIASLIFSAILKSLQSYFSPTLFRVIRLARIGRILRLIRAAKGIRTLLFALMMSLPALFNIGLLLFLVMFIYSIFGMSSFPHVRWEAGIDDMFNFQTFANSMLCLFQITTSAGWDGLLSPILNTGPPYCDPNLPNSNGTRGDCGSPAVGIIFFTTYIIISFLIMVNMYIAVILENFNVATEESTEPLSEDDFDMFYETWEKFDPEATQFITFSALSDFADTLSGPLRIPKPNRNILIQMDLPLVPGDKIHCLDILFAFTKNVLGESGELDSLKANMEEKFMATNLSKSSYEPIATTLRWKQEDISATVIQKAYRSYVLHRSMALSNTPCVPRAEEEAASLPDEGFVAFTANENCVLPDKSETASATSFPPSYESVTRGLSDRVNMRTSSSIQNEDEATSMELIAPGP

The test has as its target T1, human Nav1.8 channels (Homo sapiens, UniProt Q9Y5Y9).
T1 construct: expressed in transfected cells
Nature of the test: Nav1.8 Qube automated patch-clamp assay. The following applies: human Nav1.8 stably expressed in HEK 293 cells; whole-cell voltage clamp, room temperature; resting or inactivated state not specified; read-out: IC50 values (nM) for Examples in the Nav1.8 Qube Assay. The format is cell-based. The protocol:
Compounds were tested on human Nav1.8 and Nav1.5 channels stably expressed in human embryo kidney (HEK) 293 cells. Sodium current measurements on Qube® were conducted as follows: automated 384-well patch-clamp assays on the Qube® platform (Sophion Biosciences) were used to measure the inhibition of sodium flow through human Nav1.8 and Nav1.5 channels. Whole-cell voltage-clamp recordings were performed in QChips® (Sophion Biosciences) at room temperature. Nav1.8 current measurements on Qube® were obtained as follows: Nav1.8 currents were elicited with a 10 second 1 Hertz (Hz) pulse train from a holding potential of −90 millivolts (mV), delivered to the cells once per minute in the control condition (DMSO only) and after compound addition. The 1 hertz pulse train stimulation consisted of ten test pulses to 10 millivolt (mV) for 20 milliseconds (ms), each of which was followed by a 980 millisecond repolarization to −67 millivolts. At the end of the 10 second pulse train stimulation, a second hyperpolarization step to −100 millivolt (mV) was used to recover Nav1.8 from fast inactivation. The peak currents elicited by the 1st and 10th test pulses were used to determine IC50 values for resting inhibition and inactivated state inhibition. Nav1.5 current measurements on Qube® were obtained as follows: Nav1.5 currents were elicited with a 20 second 3 Hertz pulse train in the control condition (DMSO only) and after compound addition. The pulse train consisted of sixty 20 millisecond test pulses to 0 millivolt from a holding potential of −80 millivolt (mV). The average peak currents elicited by the last 3 test pulses were used to determine IC50 values for Nav1.5 inhibition.
The following buffers were used for the Qube® recordings: External buffer for Nav1.8 Qube® recording: 150 NaCl, 2 CaCl2, 5 KCl, 1 Mg Cl2, 10 HEPES, 12 Dextrose; External buffer for Qube® Nav1.5 recording: 120 N-Methyl-D-Glucamine, 40 NaCl, 1 KCl, 2.7 CaCl2, 5 HEPES, 0.5 MgCl2: and Internal buffer for Qube® recording: 120 CsF, 30 CsCl, 10 EGTA, 5 HEPES, 5 NaF, 2 MgCl2.
For all Qube® experiments offline analysis was used to determine percent inhibition as a function of drug concentration. IC50 values were determined by fitting to the Hill equation.
In general terms: Patch clamp records ionic current or voltage across a cell membrane.
Usually IC50 stands for the midpoint of a concentration-inhibition curve. For the compound `NS(=O)(=O)c1cc(NC(=O)c2cc(C(F)(F)F)cnc2N2CC3CCC3(C(F)(F)F)C2)ccn1` (single isomer, unassigned) [Example 59, N-(2-sulfamoyl-4-pyridyl)-5-(trifluoromethyl)-2-[(1R,5R or 1S,5S)-1-(trifluoromethyl)-3-azabicyclo[3.2.0]heptan-3-yl]pyridine-3-carboxamide], the IC50 came to 116 nM. `NS(=O)(=O)c1cc(NC(=O)c2cc(C(F)(F)F)cnc2N2CCOC(C(F)(F)F)CC2)ccn1` (single isomer, unassigned) [Example 118, (R or S)-N-(2-sulfamoylpyridin-4-yl)-5-(trifluoromethyl)-2-(7-(trifluoromethyl)-1,4-oxazepan-4-yl)nicotinamide]: the IC50 was 54 nM. For `Cc1nc(N2CCCCC2)c(C(=O)Nc2cc[nH]c(=O)c2)c(C)c1Cl` [Example 211, 5-chloro-4,6-dimethyl-N-(2-oxo-1,2-dihydropyridin-4-yl)-2-(piperidin-1-yl)-nicotinamide], the half-inhibitory concentration (IC50) was found to be 357 nM. The same measure for `COc1nc(N2CCCC(F)(F)CC2)c(C(=O)Nc2ccnc(S(=O)(=O)NC(C)(C)C)c2)cc1Cl` [Example 42, N-[2-(tert-butylsulfamoyl)pyridin-4-yl]-5-chloro-2-(4,4-difluoroazepan-1-yl)-6-methoxypyridine-3-carboxamide]: 341 nM; for `NS(=O)(=O)c1cc(NC(=O)c2ccc(C(F)F)nc2N2CCCC(F)(F)CC2)ccn1` [Example 174, 2-(4,4-difluoroazepan-1-yl)-6-(difluoromethyl)-N-(2-sulfamoylpyridin-4-yl)nicotinamide]: 4.1 nM; for `CC12CCN(c3ncc(C(F)(F)F)cc3C(=O)Nc3ccnc(S(N)(=O)=O)c3)CC1C2(F)F` (single isomer, unassigned) [Example 62, 2-[(1R,6R or 1S,6S)-7,7-difluoro-6-methyl-3-azabicyclo[4.1.0]heptan-3-yl]-N-(2-sulfamoyl-4-pyridyl)-5-(trifluoromethyl)pyridine-3-carboxamide]: 105 nM. The same measure for `CC1(C)c2cc(F)ccc2CN1c1ncc(C(F)(F)F)cc1C(=O)Nc1ccnc(S(N)(=O)=O)c1` [Example 113, 2-(6-fluoro-1,1-dimethyl-isoindolin-2-yl)-N-(2-sulfamoyl-4-pyridyl)-5-(trifluoromethyl)pyridine-3-carboxamide]: 9330 nM. Take `O=C(Nc1cc[nH]c(=O)c1)c1cc(Cl)c(C2CC2)nc1N1CCCC(F)(F)CC1` [Example 27, 5-chloro-6-cyclopropyl-2-(4,4-difluoroazepan-1-yl)-N-(2-oxo-1,2-dihydropyridin-4-yl)nicotinamide]: the IC50 was determined as 31 nM.

For the compound `NS(=O)(=O)c1cc(NC(=O)c2cc(-c3ccccc3)cnc2N2CCC(F)(F)CC2)ccn1` [Example 205, 2-(4,4-difluoropiperidin-1-yl)-5-phenyl-N-(2-sulfamoylpyridin-4-yl)nicotinamide], the IC50 came out at 71 nM. Take `NS(=O)(=O)c1cc(NC(=O)c2cc(C(F)(F)F)cnc2N2CCCCCC2)ccn1` [Example 139, 2-(azepan-1-yl)-N-(2-sulfamoyl-4-pyridyl)-5-(trifluoromethyl)pyridine-3-carboxamide]: the IC50 was 16 nM. Take `Cc1nc(N2CCCCCC2)c(C(=O)Nc2ccnc(S(N)(=O)=O)c2)c(C)c1Cl` [Example 201, 2-(azepan-1-yl)-5-chloro-4,6-dimethyl-N-(2-sulfamoylpyridin-4-yl)nicotinamide]: the IC50 was found to be 1.3 nM.

On to `CC1CN(c2nc(C(F)(F)F)ccc2C(=O)Nc2ccnc(S(N)(=O)=O)c2)CCC1(F)F` (single isomer, unassigned) [Example 163, (S or R)-2-(4,4-difluoro-3-methylpiperidin-1-yl)-N-(2-sulfamoylpyridin-d-yl)-6-(trifluoromethyl)nicotinamide], for which the IC50 stood at 10 nM. For the compound `Cc1ncc(C(=O)Nc2ccnc(S(N)(=O)=O)c2)c(N2CCCC(F)(F)CC2)n1` [Example 173, 4-(4,4-difluoroazepan-1-yl)-2-methyl-N-(2-sulfamoylpyridin-4-yl)pyrimidine-5-carboxamide], the half-maximal inhibitory concentration (IC50) worked out at 199 nM. Then `NS(=O)(=O)c1cc(NC(=O)c2ccc(C3CCC3)nc2N2CCCC(F)(F)CC2)ccn1` [Example 24, 6-cyclobutyl-2-(4,4-difluoroazepan-1-yl)-N-(2-sulfamoylpyridin-4-yl)nicotinamide], with 2.1 nM; and `Cc1nc(N2CCCCCC2)c(C(=O)Nc2cc[nH]c(=O)c2)c(C)c1Cl` [Example 213, 2-(azepan-1-yl)-5-chloro-4,6-dimethyl-N-(2-oxo-1,2-dihydropyridin-4-yl)nicotinamide], with 80 nM.

Regarding `NS(=O)(=O)c1cncc(NC(=O)c2cc(C(F)(F)F)cnc2N2CCC(F)(F)CC2)n1` [Example 1, 2-(4,4-difluoropiperidin-1-yl)-N-(6-sulfamoylpyrazin-2-yl)-5-(trifluoromethyl)nicotinamide], the IC50 is 406 nM. The same measure for `O=C(O)c1cc(NC(=O)c2cc(C(F)(F)F)cnc2N2CCC(F)(F)CC2)ccn1` [Example 4, 4-(2-(4,4-difluoropiperidin-1-yl)-5-(trifluoromethyl)nicotinamido)picolinic acid]: 5430 nM; for `C[C@@H]1CN(c2ncc(C(F)(F)F)cc2C(=O)Nc2ccnc(S(N)(=O)=O)c2)CCCO1` [Example 111, 2-[(2R)-2-methyl-1,4-oxazepan-4-yl]-N-(2-sulfamoyl-4-pyridyl)-5-(trifluoromethyl)pyridine-3-carboxamide]: 633 nM; for `CC1CCCN(c2ncc(C(F)(F)F)cc2C(=O)Nc2ccnc(S(N)(=O)=O)c2)C1` (single isomer, unassigned) [Example 56, (S or R)-2-(3-methylpiperidin-1-yl)-N-(2-sulfamoylpyridin-4-yl)-5-(trifluoromethyl)nicotinamide]: 9.1 nM.

For the compound `COc1cncc(NC(=O)c2cc(C(F)(F)F)cnc2N2CCCCCC2)c1` [Example 194, 2-(azepan-1-yl)-N-(5-methoxy-3-pyridyl)-5-(trifluoromethyl)-pyridine-3-carboxamide], the IC50 worked out at 1550 nM. The same measure for `NS(=O)(=O)c1cc(NC(=O)c2cc(C(F)(F)F)cnc2N2CCCC3(C2)CC3(F)F)ccn1` (single isomer, unassigned) [Example 66, (R of S)-2-(1,1-difluoro-5-azaspiro[2.5]octan-5-yl)-N-(2-sulfamoylpyridin-4-yl)-5-(trifluoromethyl)nicotinamide]: 88 nM. Then `CS(=O)(=O)c1cc(NC(=O)c2cc(C(F)(F)F)cnc2N2C[C@H]3CC[C@H]3C2)ccn1` [Example 152, 2-[(1R,5S)-3-azabicyclo[3.2.0]heptan-3-yl]-N-(2-methylsulfonyl-4-pyridyl)-5-(trifluoro-methyl)pyridine-3-carboxamide], with 155 nM; and `NS(=O)(=O)c1cc(NC(=O)c2cc(C(F)(F)F)cnc2N2CC3CC2CC3(F)F)ccn1` (single isomer, unassigned) [Example 71, 2-[(1R,4R or 1S,4S)-5,5-difluoro-2-azabicyclo[2.2.1]heptan-2-yl]-N-(2-sulfamoyl-4-pyridyl)-5-(trifluoromethyl)pyridine-3-carboxamide], with 60 nM. As to `O=C(Nc1cc[nH]c(=O)c1)c1cc(C(F)(F)F)cnc1N1CCCCCC1` [Example 212, 2-(azepan-1-yl)-N-(2-oxo-1,2-dihydropyridin-4-yl)-5-(trifluoromethyl)nicotinamide], the IC50 was 570 nM. The same measure for `CS(=O)(=O)n1nc(NC(=O)c2cc(C(F)(F)F)cnc2N2CCCC(F)(F)CC2)c2ccccc21` [Example 34, 2-(4,4-difluoroazepan-1-yl)-N-[1-(methylsulfonyl)-1H-indazol-3-yl]-5-(trifluoromethyl)pyridine-3-carboxamide]: 50 nM. Turning to `NC(=O)c1cc(NC(=O)c2cc(C(F)(F)F)cnc2N2CCCCCC2)ccn1` [Example 203, 4-(2-(azepan-1-yl)-5-(trifluoromethyl)nicotinamido)picolinamide], the half-maximal inhibitory concentration (IC50) came to 139 nM. Take `C[C@H]1CN(c2ncc(C(F)(F)F)cc2C(=O)Nc2ccnc(S(N)(=O)=O)c2)CCC1(F)F` (single isomer, unassigned) [Example 47]: the IC50 is 3.9 nM. In the case of `CC1CN(c2ncc(C(F)(F)F)cc2C(=O)Nc2ccnc(C#N)c2)CCC1(F)F` (single isomer, unassigned) [Example 155, (R or S)-N-(2-cyanopyridin-4-yl)-2-(4,4-difluoro-3-methylpiperidin-1-yl)-5-(trifluoro-methyl)nicotinamide], the IC50 amounted to 60 nM.
